Experimental findings from patent US9980966B2, “Combinations of cancer therapeutics” (Merck Patent GmbH, priority 2014, dated 2018) are described below.

For test [1], the system named is broad panel of cancer cell lines. As to the kind of experiment: Anti-tumor activity of the single agent in a panel of cancer cell lines. In kind it is cell-based. As to the method: The cell lines were grown in the media recommended by the suppliers in the presence of 100 U/ml penicillinG and 100 μg/ml streptomycin supplied with 10% FCS (PAN, Germany).
Cell growth and treatment were performed in 96-well microtitre plates. Cells harvested from exponential phase cultures by trypsinization were plated in 190 μl of media at optimal seeding densities. The optimal seeding densities for each cell line were determined to ensure exponential growth for the duration of the experiment. All cells growing without anticancer agents were sub-confluent by the end of the treatment as determined by visual inspection. Compound dilutions in DMSO were performed in 96-well rigid PCR plates. Compounds were then diluted […] in RPMI medium. 190 μl of cells, after a 24-hour pre-growth period, were treated by mixing with 10 μl of the compound-containing media (resulting in a final DMSO concentration of 0.1%). The cells were allowed to grow at 37° C. for 72 hours. In addition, all experiments contained a few plates with cells that were processed for measurement immediately after the 24 hours recovery period. These plates contained information about the cell number that existed before treatment, at time zero, and served to calculate the cytotoxicity and/or growth inhibitory effects. […] Measurement of optical density was performed at 560 nm on a Victor 2 plate reader (Perkin Elmer, Germany). […]

Test [2] concerns Her2+ patient-derived breast model "CTG-0033". Put plainly: Patient derived xenograft model of breast cancer, tumor volume efficacy study. It counts as in vivo, mice. From the text: Female nude (Harlan; nu/nu) between 5-7 weeks were implanted subcutaneously with tumor fragments from the Her2+ patient-derived breast model “CTG-0033” (passage 3, i.e. the model has been serially passaged/grown from the original host 3 times) harvested from host animals. When host tumors reached 1-1.5 cm^3, tumors were harvested for re-implantation into animals to be used for the efficacy study. When the CTG-0033 (passage 4) tumors reached approximately 190 mm^3; animals were randomized by tumor volume into treatment or control groups (n=10) and dosing was initiated on Day 0. […] Tumor volumes were recorded twice per week. […] The other treatments were stopped at Day 75 and tumors were allowed to grow back for over 2 months with mice receiving no treatment.
On the technique in general: A xenograft is tissue or cells of one species grown in another, often human tumour cells in immunodeficient mice.

Consider `NC(=O)c1cccc2c(N[C@H](CN3CCC3)c3ccc(Cl)c(C(F)(F)F)c3)ncnc12` [Compound A, 4-[(S)-2-Azetidin-1-yl-1-(4-chloro-3-trifluoromethyl-phenyl)-ethylamino]-quinazoline-8-carboxylic acid amide], for which the “anti-tumor activity against a broad panel of cancer cell lines” value in test [1] is listed as “potent anti-tumor activity”. In test [1] (breast cancer cells, glioblastoma cells, endometrial cancer cells and ovarian carcinoma cells), the “sensitivity of cancer cells to the compound” value is on record as “particularly sensitive”. The tumor regression in test [2] (Day 55, Compound A 30 mg/kg QD PO, Herceptin 15 mg/kg QW IV in the combination, CTG-0033 tumors in female nude mice) is 50%; in test [2] (Day 76, after treatment until Day 75), −66%. Also, in test [2] (after 71 days of regrowth period after cessation of treatment, log rank sum test p<0.05), the “number of treated tumors that grew back” value was found to be 6.
